From publication PMC4065032, “Biochemical Characterization of Quinolinic Acid Phosphoribosyltransferase from Mycobacterium tuberculosis H37Rv and Inhibition of Its Activity by Pyrazinamide” (PLoS ONE, 2014)
“And” between values parts separate entries of the source, which are not always exact repeats. Equal entries are not always repeated. Where two headings read alike, the source gives them in different places.

Key:
[1] = biological target: T1, MtQAPRTase (Mycobacterium tuberculosis, UniProt P9WJJ7)
T1 sequence (P9WJJ7 1-285): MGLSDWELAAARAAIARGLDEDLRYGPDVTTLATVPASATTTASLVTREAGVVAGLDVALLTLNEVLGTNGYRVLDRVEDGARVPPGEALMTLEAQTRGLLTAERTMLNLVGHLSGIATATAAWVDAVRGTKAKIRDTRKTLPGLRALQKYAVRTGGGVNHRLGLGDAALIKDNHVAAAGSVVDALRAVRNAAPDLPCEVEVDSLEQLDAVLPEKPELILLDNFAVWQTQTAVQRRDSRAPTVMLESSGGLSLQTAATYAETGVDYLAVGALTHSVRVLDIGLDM

[2] = biological target: T1, MtQAPRTase; experiment: Inhibition of MtQAPRTase activity by PZA/POA (HPLC quantification of NAMN); format: biochemical, Mycobacterium tuberculosis H37Rv; parameters: Full-length nadC from M. tuberculosis H37Rv was inserted into the expression vector pET-30a; made in house; host or cells: E. coli BL21 (DE3), pET-30a; details: for Ki: read-out: Ki estimated from IC50 by web-based tool
[3] = biological target: T1, MtQAPRTase; experiment: PZA or POA added instead of QA or PRPP as substrate (HPLC); format: biochemical, Mycobacterium tuberculosis H37Rv; parameters: Full-length nadC from M. tuberculosis H37Rv was inserted into the expression vector pET-30a; made in house; host or cells: E. coli BL21 (DE3), pET-30a
[4] = biological target: T2, WT MtQAPRTase (Mycobacterium tuberculosis, UniProt P9WJJ7); experiment: Kinetic parameters of MtQAPRTase (spectrophotometric assay at 266 nm); format: biochemical, Mycobacterium tuberculosis H37Rv
T2 sequence (P9WJJ7 1-285): T1 sequence (P9WJJ7 1-285)

Row | SMILES | Relative Activity [1] [%] | Specific activity [1] [Unit/mg] | other results
1 | [Ca+2].[Cl-].[Cl-] [Ca^2+ (CaCl2), CaCl2] | 0 | 0 | 
2 | [Cl-].[Cl-].[Co+2] [Co^2+ (CoCl2), CoCl2] | 12 | 0.15 | 
3 | O=S(=O)([O-])[O-].[Cu+2] [Cu^2+ (CuSO4), CuSO4] | 0 | 0 | 
4 | [Cl][Fe][Cl] [Fe^2+ (FeCl2), FeCl2] | 6 | 0.06 | 
5 | [Cl-].[Cl-].[Mg+2] [Mg^2+ (MgCl2), MgCl2] | 100 | 1.32 | 
6 | [Cl][Mn][Cl] [Mn^2+ (MnCl2), MnCl2] | 27 | 0.35 | 
7 | O=C(O)c1cnccn1 [POA, Pyrazinoic acid] |  |  | IC50 [2]: 3.45 mM and > 20 mM; Ki ([2]; pH 7.2): 175 µM; Use as substrate by MtQAPRTase [3]: not substrates
8 | O=P(O)(O)OC[C@H]1O[C@H](OP(=O)(O)OP(=O)(O)O)[C@H](O)[C@@H]1O [PRPP, 5-phosphoribosyl-1-pyrophosphate] |  |  | kcat ([4]; varied substrate, other substrate fixed (QA 0.3 mM or PRPP 1.0 mM), pH 7.2, 37°C): 0.14 s⁻¹; Km ([4]; varied substrate, other substrate fixed (QA 0.3 mM or PRPP 1.0 mM), pH 7.2, 37°C, read-out: Km): 390 µM
9 | NC(=O)c1cnccn1 [PZA, Pyrazinamide] |  |  | IC50 [2]: 0.38 mM and 1.37 mM; Ki ([2]; pH 6.2): 69.4 µM; Ki ([2]; pH 7.2): 19.2 µM; Use as substrate by MtQAPRTase [3]: not substrates
10 | O=C(O)c1cccnc1C(=O)O [QA, 2,3-pyridinedicarboxylic acid] |  |  | Km ([4]; pH 7.2): 80 µM; kcat ([4]; pH 7.2): 0.12 s^-1 and 0.12
11 | [Cl-].[Cl-].[Zn+2] [Zn^2+ (ZnCl2), ZnCl2] | 0 | 0 | 
